Test results from patent US20040176431A1, “Antiproliferative 2-(sulfo-phenyl)-aminothiazole derivatives and pharmaceutical compositions, and methods for their use” (Pfizer, Inc., priority 2003, published 2004).

Biological target: T1, CDK4/cyclin D3 (Homo sapiens, UniProt P11802)
T1 construct: made in house; host or cells: insect cells (baculovirus co-infection)
Assay: Inhibition of CDK4/Cyclin D retinoblastoma kinase activity
Type: biochemical
Details: for inhibition at 0.1 µM: test compound at 0.1 μM, read-out: % Inhib CDK4/D @ 0.1 μM; for inhibition at 1 µM: test compound at 1 μM (head line shifted: 'mM' printed beside 'Structure'), read-out: % Inhib CDK4/D @ 1 μM; for inhibition at 0.03 µM: test compound at 0.03 (unit cell empty, head line shifted; μM), read-out: % Inhib CDK4/D @ 0.03
Procedure: Cyclin-dependent kinase activity was measured by quantifying the enzyme-catalyzed, time-dependent incorporation of radioactive phosphate from [^32P]ATP or [^33P]ATP into a protein substrate. Unless noted otherwise, assays were performed in 96-well plates in a total volume of 50 μL, in the presence of 10 mM HEPES (N-[2-hydroxyethyl]piperazine-N′-[2-ethanesulfonic acid]) (pH 7.4), 10 mM MgCl2, 25 μM adenosine triphosphate (ATP), 1 mg/mL ovalbumin, 5 μg/mL leupeptin, 1 mM dithiothreitol, 10 mM β-glycerophosphate, 0.1 mM sodium vanadate, 1 mM sodium fluoride, 2.5 mM ethylene glycol-bis(β-aminoethyl ether)-N,N,N′N′-tetraacetic acid (EGTA), 2% (v/v) dimethylsulfoxide, and 0.03-0.4 μCi [^32/33P]ATP per reaction. Reactions were initiated with enzyme, incubated at 30° C., and terminated after 20 minutes by the addition of ethylenediaminetetraacetic acid (EDTA) to 250 mM. The phosphorylated substrate was then captured on a nitrocellulose or phosphocellulose membrane using a 96-well filtration manifold, and unincorporated radioactivity was removed by repeated washing with 0.85% phosphoric acid. Radioactivity was quantified by exposing the dried membranes to a phosphorimager.
Inhibition was measured relative to control wells that contained all reaction components including 2% (v/v) DMSO but no compound, after subtraction of background radioactivity measured in the absence of enzyme. Apparent Ki values of discrete compounds were measured by assaying enzyme activity in the presence of different inhibitor compound concentrations and subtracting the background radioactivity measured in the absence of enzyme. The kinetic parameters (kcat, Km for ATP) were measured for each enzyme under the usual assay conditions by determining the dependence of initial rates on ATP concentration. Inhibition data were fit to an equation for competitive inhibition using Kaleidagraph (Synergy Software), or were fit to an equation for competitive tight-binding inhibition using the software KineTic (BioKin, Ltd.).
A complex of human CDK4 and genetically truncated (1-264) cyclin D3 was purified using traditional biochemical chromatographic techniques from insect cells that had been co-infected with the corresponding baculovirus expression vectors (see e.g., Meijer and Kim, “Chemical Inhibitors of Cyclin-Dependent Kinases,” Methods in Enzymol., 283, 113-128 (1997)). The enzyme complex (5 nM) was assayed with 0.3-0.5 μg of purified recombinant retinoblastoma protein fragment (Rb) as a substrate. The engineered Rb fragment (residues 386-928 of the native retinoblastoma protein; 62.3 kDa) contains the majority of the phosphorylation sites found in the native 106-kDa protein, as well as a tag of six histidine residues for ease of purification. Phosphorylated Rb substrate was captured by microfiltration on a nitrocellulose membrane and quantified using a phosphorimager as described above. For measurement of tight-binding inhibitors, the assay duration was extended to 60 minutes, during which the time-dependence of product formation was linear and initial rate conditions were met.

T1 sequence (P11802 whole entry): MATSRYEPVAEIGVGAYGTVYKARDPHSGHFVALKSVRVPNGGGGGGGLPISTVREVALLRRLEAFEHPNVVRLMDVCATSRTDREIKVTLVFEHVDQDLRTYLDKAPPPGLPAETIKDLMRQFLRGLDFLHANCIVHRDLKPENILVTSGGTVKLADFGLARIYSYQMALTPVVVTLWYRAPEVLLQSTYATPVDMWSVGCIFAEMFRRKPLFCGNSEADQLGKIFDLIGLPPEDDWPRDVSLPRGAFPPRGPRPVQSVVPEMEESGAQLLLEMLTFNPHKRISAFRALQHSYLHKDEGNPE
T1 sequence (P30281 1-264 partner limits assumed): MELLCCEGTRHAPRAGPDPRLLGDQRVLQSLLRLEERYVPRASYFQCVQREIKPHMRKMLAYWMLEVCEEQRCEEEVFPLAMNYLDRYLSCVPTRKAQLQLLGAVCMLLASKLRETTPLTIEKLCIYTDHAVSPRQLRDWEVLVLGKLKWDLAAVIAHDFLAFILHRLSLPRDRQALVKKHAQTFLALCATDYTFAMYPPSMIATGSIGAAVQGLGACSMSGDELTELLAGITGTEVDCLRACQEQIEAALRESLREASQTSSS

Row | Structure (SMILES) | inhibition at 0.1 µM [%] | inhibition at 1 µM [%] | inhibition at 0.03 µM [%]
1 | COC(=O)/C=C/CSc1cccc(Nc2nc(N)c(C(=O)c3c(Cl)cccc3Cl)s2)c1 [DD(44)] | 31 | 46 | 23
2 | Nc1nc(Nc2cccc(SCCCO)c2)sc1C(=O)c1c(Cl)cccc1Cl [DD(45)] | 54 | 79.6 | 32
3 | C=CCCSc1cccc(Nc2nc(N)c(C(=O)c3c(Cl)cccc3Cl)s2)c1 [DD(46)] | 39 | 50.7 | 18
4 | Nc1nc(Nc2cccc(SCCN3CCCC3)c2)sc1C(=O)c1c(Cl)cccc1Cl [DD(47)] | 7.3 | 62.9 | 20
5 | Nc1nc(Nc2cccc(SCc3ncon3)c2)sc1C(=O)c1c(Cl)cccc1Cl [DD(48)] | 36 | 52.2 | 26
6 | Nc1nc(Nc2cccc(SCC3CNC(=O)O3)c2)sc1C(=O)c1c(Cl)cccc1Cl (stereo not drawn) [DD(49)] | 19 | 54.2 | 12
7 | CN(C)CCCSc1cccc(Nc2nc(N)c(C(=O)c3c(Cl)cccc3Cl)s2)c1 [DD(50)] | 10 | 80.3 | 24
8 | Nc1nc(Nc2cccc(SCCN3CCCCC3)c2)sc1C(=O)c1c(Cl)cccc1Cl [DD(51)] | 30 | 75.6 | 4.1
9 | Nc1nc(Nc2cccc(SCC3CO3)c2)sc1C(=O)c1c(Cl)cccc1Cl (stereo not drawn) [DD(52)] | 34 | 74.9 | 15
10 | CC(C)CCSc1cccc(Nc2nc(N)c(C(=O)c3c(Cl)cccc3Cl)s2)c1 [DD(53)] | 14 | 31.5 | 5.6
11 | COCCSc1cccc(Nc2nc(N)c(C(=O)c3c(Cl)cccc3Cl)s2)c1 [DD(54)] | 34 | 75.2 | 20
12 | Nc1nc(Nc2cccc(SCC(=O)Nc3ccccc3)c2)sc1C(=O)c1c(Cl)cccc1Cl [DD(55)] | 24 | 63.4 | 17
13 | Nc1nc(Nc2cccc(SCC3CC3)c2)sc1C(=O)c1c(Cl)cccc1Cl [DD(56)] | 17 | 55.4 | 2.9
14 | COc1cccc(CSc2cccc(Nc3nc(N)c(C(=O)c4c(Cl)cccc4Cl)s3)c2)c1 [DD(57)] | -9 | 24.6 | -14
15 | Nc1nc(Nc2cccc(SCC3CCCO3)c2)sc1C(=O)c1c(Cl)cccc1Cl (stereo not drawn) [DD(58)] | 23 | 72.7 | 11
16 | CN1CCCC1CCSc1cccc(Nc2nc(N)c(C(=O)c3c(Cl)cccc3Cl)s2)c1 (stereo not drawn) [DD(59)] | 37 | 57.4 | 20
17 | CC1(CSc2cccc(Nc3nc(N)c(C(=O)c4c(Cl)cccc4Cl)s3)c2)CO1 (stereo not drawn) [DD(60)] | 39 | 80.1 | 22
18 | NC(=O)CSc1cccc(Nc2nc(N)c(C(=O)c3c(Cl)cccc3Cl)s2)c1 [DD(61)] | 57 | 81.5 | 20
19 | CCOC(=O)CCSc1cccc(Nc2nc(N)c(C(=O)c3c(Cl)cccc3Cl)s2)c1 [DD(62)] | 27 | 46.4 | 6.4
20 | CC(C)OC(=O)CSc1cccc(Nc2nc(N)c(C(=O)c3c(Cl)cccc3Cl)s2)c1 [DD(63)] | 29 | 46.6 | -3.8

Row | Structure (SMILES) | inhibition at 0.1 µM [%] | inhibition at 1 µM [%] | inhibition at 0.03 µM [%]
21 | CC(C)=CCSc1cccc(Nc2nc(N)c(C(=O)c3c(Cl)cccc3Cl)s2)c1 [DD(64)] | 27 | 22.1 | -11
22 | CCCSc1cccc(Nc2nc(N)c(C(=O)c3c(Cl)cccc3Cl)s2)c1 [DD(65)] | 7 | 51.1 | 6.5
23 | COC(=O)CSc1cccc(Nc2nc(N)c(C(=O)c3c(Cl)cccc3Cl)s2)c1 [DD(66)] | 23 | 77.1 | 18
24 | CN1CCCC(CSc2cccc(Nc3nc(N)c(C(=O)c4c(Cl)cccc4Cl)s3)c2)C1 (stereo not drawn) [DD(67)] | 14 | 49.1 | 4.3
25 | NC(=O)CCSc1cccc(Nc2nc(N)c(C(=O)c3c(Cl)cccc3Cl)s2)c1 [DD(68)] | 52 | 77.4 | 25
26 | Nc1nc(Nc2cccc(SCCO)c2)sc1C(=O)c1c(Cl)cccc1Cl [DD(69)] | 41 | 78.4 | 16
27 | CC(C)CCCSc1cccc(Nc2nc(N)c(C(=O)c3c(Cl)cccc3Cl)s2)c1 [DD(70)] | 16 | 5.3 | 93
28 | CC(C)CCOC(=O)CSc1cccc(Nc2nc(N)c(C(=O)c3c(Cl)cccc3Cl)s2)c1 [DD(71)] | 6.9 | 36 | 77
29 | CN(C)CCSc1cccc(Nc2nc(N)c(C(=O)c3c(Cl)cccc3Cl)s2)c1 [DD(72)] | 25 | 69 | -1.1
30 | CCOCCSc1cccc(Nc2nc(N)c(C(=O)c3c(Cl)cccc3Cl)s2)c1 [DD(73)] | 31 | 73.7 | 11
31 | Nc1nc(Nc2cccc(SCC(O)CO)c2)sc1C(=O)c1c(Cl)cccc1Cl (stereo not drawn) [DD(74)] | 59 | 85.7 | 28
32 | Nc1nc(Nc2cccc(SCc3ccncc3)c2)sc1C(=O)c1c(Cl)cccc1Cl [DD(75)] | 29 | 66.5 | 18
33 | CCC(CC)CSc1cccc(Nc2nc(N)c(C(=O)c3c(Cl)cccc3Cl)s2)c1 [DD(76)] | 9.6 | 29.5 | 19
34 | CC(=O)OCCSc1cccc(Nc2nc(N)c(C(=O)c3c(Cl)cccc3Cl)s2)c1 [DD(77)] | 30 | 71.9 | 23
35 | CC(C)OC(=O)CCSc1cccc(Nc2nc(N)c(C(=O)c3c(Cl)cccc3Cl)s2)c1 [DD(78)] | 22 | 36.2 | 13
36 | Nc1nc(Nc2cccc(SCCN3CCOCC3)c2)sc1C(=O)c1c(Cl)cccc1Cl [DD(79)] | 4.3 | 62.3 | 9.1
37 | CC(C)(CO)CSc1cccc(Nc2nc(N)c(C(=O)c3c(Cl)cccc3Cl)s2)c1 [DD(80)] | 1.5 | 56 | 1.2
38 | CCN(CC)C(=O)C[S+]([O-])c1ccc(Nc2nc(N)c(C(=O)c3c(Cl)cccc3Cl)s2)cc1 (stereo not drawn) [DD(81)] | 21 | 57.4 | -21
39 | Cc1noc(C)c1C[S+]([O-])c1ccc(Nc2nc(N)c(C(=O)c3c(Cl)cccc3Cl)s2)cc1 (stereo not drawn) [DD(82)] | -4 | 72.3 | -3.3
40 | CC(CN(C)C)C[S+]([O-])c1ccc(Nc2nc(N)c(C(=O)c3c(Cl)cccc3Cl)s2)cc1 (stereo not drawn) [DD(83)] | 31 | 43 | -17
